Patent US9617276B2, “Compounds and methods for treating AIDS and HIV infections” (priority 2009, dated 2017)

Tests used:
HIV-1LPV5μM = assay: microbe, parasite or virus in culture; assay type: cell-based; details: for EC50: Human immunodeficiency virus 1, MT4, read-out: EC50 (μM), HIV-1LPV5 μM
Procedure: (§1) The susceptibility of HIV-1LAI and primary HIV-1 isolates to various drugs were determined as described previously (Koh et al. 2003 Antimicrob Agents Chemother 47:3123-9). Briefly, MT-2 cells (2×10^4/ml) were exposed to 100 50% tissue culture infectious doses (TCID50S) of HIV-1LAI, in the presence or absence of various concentrations of drugs in 96-well microculture plates and were incubated at 37° C. for 7 days. After 100 μl of the medium was removed from each well, 3-(4,5-dimetylthiazol-2-yl)-2,5-diphenyltetrazolium bromide (MTT) solution (10 μl, 7.5 mg/ml in phosphate-buffered saline) was added to each well in the plate, followed by incubation at 37° C. for 3 h. […] All assays were performed in duplicate or triplicate. To determine the susceptibility of primary HIV-1 isolates to drugs, phytohemagglutinin-activated peripheral blood mononuclear cells (PHA-PBMCs; 106/ml) were exposed to 50 TCID50S of each. The target cells were exposed to HIV-1104pre or drug-resistant HIV-1 in the presence or absence of various concentrations of drugs and were incubated for 7 days. Upon the conclusion of the culture, the amounts of p24 Gag protein in the supernatants were determined using a fully automated chemiluminescent enzyme immunoassay system (Lumipulse F; Fujirebio Inc., Tokyo, Japan) (Maeda et al. 2001 J Biol Chem 276:35194-200). To determine the drug susceptibility of certain laboratory HIV-1 strains, MT-4 cells were used as target cells. In brief, MT-4 cells (10^5/ml) were exposed to 100 TCID50S of drug-resistant HIV-1 strains in the presence or absence of various concentrations of drugs and on day 7 of culture, the supernatant was harvested and the amounts of p24 Gag protein were determined. […] All assays were performed in duplicate or triplicate.
(§2) Numbers in parentheses represent n-fold changes in EC50s for each isolate compared to the EC50s for wild-type HIV-1NL4-3.

HIV-1SQV5μM = assay: microbe, parasite or virus in culture; assay type: cell-based
Procedure: as §1, §2

HIV-1AZV5μM = assay: microbe, parasite or virus in culture; assay type: cell-based
Procedure: as §1, §2

HIV-1APV5μM = assay: microbe, parasite or virus in culture; assay type: cell-based; details: for EC50: Human immunodeficiency virus 1, MT4, read-out: EC50 (μM), HIV-1APV5 μM
Procedure: as §1, §2

HIV-1NFV5μM = assay: microbe, parasite or virus in culture; assay type: cell-based
Procedure: as §1, §2

HIV-1MDR/JSL = assay: microbe, parasite or virus in culture; assay type: cell-based
Procedure: as §1
(§3) These clinical strains contained 9 to 14 amino acid substitutions in the protease-encoding region, which have reportedly been associated with HIV-1 resistance to various PIs.
(§4) Amino acid substitutions identified in the protease-encoding region compared to the consensus type B sequence cited from the Los Alamos database include L63P in HIV-1ERS104pre; L10I, K14R, L33I, M36I, M46I, F53I, K55R, I62V, L63P, A71V, G73S, V82A, L90M, and I93L in HIV-1MDR/B; L10I, I15V, K20R, L24I, M36I, M46L, I54V, I62V, L63P, K70Q, V82A, and L89M in HIV-1MDR/C; L10I, V11I, T12E, I15V, L19I, R41K, M46L, L63P, A71T, V82A, and L90M in HIV-1MDR/G; L10I, K14R, R41K, M46L, I54V, L63P, A71V, V82A, L90M, I93L in HIV-1MDR/TM; L10I, K43T, M46L, I54V, L63P, A71V, V82A, L90M, and Q92K in HIV-1MDR/MM; L10I, L24I, I33F, E35D, M36I, N37S, M46L, I54V, R57K, I62V, L63P, A71V, G73S, and V82A in HIV-1MDR/JSL. HIV-1ERS104pre served as a source of wild-type HIV-1. EC50s were determined by using PHA-PBMs as target cells, and inhibition of p24 Gag protein production by each drug was used as an end point. Numbers in parentheses represent n-fold changes of EC50s for each isolate compared to EC50s for wild-type HIV-1ERS104pre.

HIV-1MDR/MM = assay: microbe, parasite or virus in culture; assay type: cell-based
Procedure: as §1, §3, §4

[1] = system: HIV-1ERS104pre (wild-type); assay: p24 Gag inhibition in PHA-PBMCs, HIV-1ERS104pre; assay type: cell-based; details: mean ± 1 SD
Procedure: as §1, §3, §4

HIV-1NL4-3 = assay: p24 Gag inhibition in MT-4 cells, HIV-1NL4-3; assay type: cell-based; details: Human immunodeficiency virus 1, MT4, read-out: EC50 (μM), HIV-1NL4-3, Table 7, mean ± 1 SD
Procedure: (§5) All assays were performed in duplicate or triplicate. […] All assays were performed in duplicate or triplicate.

HIV-1MDR/C = assay type: cell-based
Procedure: as §1, §3, §4

HIV-1MDR/G = assay type: cell-based
Procedure: as §1, §3, §4

HIV-1MDR/TM = assay type: cell-based
Procedure: as §1, §3, §4

HIV-1MDR/B = assay type: cell-based
Procedure: as §1, §3, §4

[2] = system: multidrug-resistant clinical HIV-1 isolates (HIV-1MDR); assay: microbe, parasite or virus in culture; assay type: cell-based; details: Human immunodeficiency virus 1, read-out: greatest EC50 value against the clinical isolates
Procedure: as §1, §3, §4

HIV-2EHO = assay: drug susceptibility, MT-2 cells, MTT assay, HIV-2EHO; assay type: cell-based; details: Human immunodeficiency virus 2, MT2, read-out: EC50 (μM) for HIV-2EHO
Procedure: as §5
(§6) Each selectivity index denotes a ratio of CC50 to EC50 against HIV-1LAI N.D., not done.

HIV-1396-1μM = assay: microbe, parasite or virus in culture; assay type: cell-based, HIV-1; details: Human immunodeficiency virus 1, MT4, read-out: EC50 (μM), HIV-1396-1 μM
Procedure: (§7) Briefly, MT-2 cells (2×10^4/ml) were exposed to 100 50% tissue culture infectious doses (TCID50S) of HIV-1LAI, in the presence or absence of various concentrations of drugs in 96-well microculture plates and were incubated at 37° C. for 7 days. After 100 μl of the medium was removed from each well, 3-(4,5-dimetylthiazol-2-yl)-2,5-diphenyltetrazolium bromide (MTT) solution (10 μl, 7.5 mg/ml in phosphate-buffered saline) was added to each well in the plate, followed by incubation at 37° C. for 3 h. […] All assays were performed in duplicate or triplicate. […] To determine the drug susceptibility of certain laboratory HIV-1 strains, MT-4 cells were used as target cells. In brief, MT-4 cells (10^5/ml) were exposed to 100 TCID50S of drug-resistant HIV-1 strains in the presence or absence of various concentrations of drugs and on day 7 of culture, the supernatant was harvested and the amounts of p24 Gag protein were determined. […] All assays were performed in duplicate or triplicate.
as §2

HIV-1246-1μM = assay: microbe, parasite or virus in culture; assay type: cell-based, HIV-1; details: Human immunodeficiency virus 1, MT4, read-out: EC50 (μM), HIV-1246-1 μM
Procedure: as §7, §2

HIV-2ROD = assay: drug susceptibility, MT-2 cells, MTT assay, HIV-2ROD; assay type: cell-based; details: Human immunodeficiency virus 2, MT2, read-out: EC50 (μM) for HIV-2ROD
Procedure: as §5, §6

[3] = compared to wild-type HIV-1NL4-3
[4] = compared to wild-type HIV-1ERS104pre

CC(C)(C)NC(=O)[C@@H]1C[C@@H]2CCCC[C@@H]2CN1C[C@@H](O)[C@H](Cc1ccccc1)NC(=O)[C@H](CC(N)=O)NC(=O)c1ccc2ccccc2n1 [SQV, Saquinavir]
EC50 (HIV-1LPV5μM): 0.028 ± 0.007 µM
n-fold change in EC50, HIV-1LPV5 μM (HIV-1LPV5μM; [3]): (6)
EC50 (HIV-1SQV5μM; Human immunodeficiency virus 1, MT4, read-out: EC50 (μM), HIV-1SQV5 μM): > 1 µM
n-fold change in EC50, HIV-1SQV5 μM (HIV-1SQV5μM; [3]): > 200
EC50 (HIV-1AZV5μM; Human immunodeficiency virus 1, MT4, read-out: EC50 (μM), HIV-1AZV5 μM): 0.031 ± 0.005 µM
n-fold change in EC50, HIV-1AZV5 μM (HIV-1AZV5μM; [3]): (6)
EC50 (HIV-1APV5μM): 0.026 ± 0.01 µM
n-fold change in EC50, HIV-1APV5 μM (HIV-1APV5μM; [3]): (5)
EC50 (HIV-1NFV5μM; Human immunodeficiency virus 1, MT4, read-out: EC50 (μM), HIV-1NPV5 μM): 0.003 ± 0.002 µM
n-fold change in EC50, HIV-1NPV5 μM (HIV-1NFV5μM; [3]): (1)
EC50 (HIV-1MDR/JSL; Human immunodeficiency virus 1, read-out: EC50 (μM), HIV-1MDR/JSL (NSI)): 0.3 ± 0.02 µM
n-fold change of EC50, HIV-1MDR/JSL (HIV-1MDR/JSL; [4]): (37)
EC50 (HIV-1MDR/MM; Human immunodeficiency virus 1, read-out: EC50 (μM), HIV-1MDR/MM (NSI)): 0.19 ± 0.05 µM
n-fold change of EC50, HIV-1MDR/MM (HIV-1MDR/MM; [4]): (24)
EC50 (μM), HIV-1ERS104pre (wild-type SI) [1]: 0.008 ± 0.005 µM
EC50 (HIV-1NL4-3): 0.005 ± 0.002 µM
EC50 (μM), HIV-1MDR/C (SI) (HIV-1MDR/C; PHA-PBMCs, p24 Gag): 0.032 ± 0.002 µM
n-fold change of EC50, HIV-1MDR/C (HIV-1MDR/C; [4]): (11)
EC50 (μM), HIV-1MDR/G (SI) (HIV-1MDR/G; PHA-PBMCs, p24 Gag): 0.030 ± 0.002 µM
n-fold change of EC50, HIV-1MDR/G (HIV-1MDR/G; [4]): (4)
EC50 (μM), HIV-1MDR/TM (SI) (HIV-1MDR/TM; PHA-PBMCs, p24 Gag): 0.26 ± 0.04 µM
n-fold change of EC50, HIV-1MDR/TM (HIV-1MDR/TM; [4]): (33)
EC50 (μM), HIV-1MDR/B (SI) (HIV-1MDR/B; PHA-PBMCs, p24 Gag): 0.27 ± 0.073 µM
n-fold change of EC50, HIV-1MDR/B (HIV-1MDR/B; [4]): (34)

CC(C)CN(C[C@@H](O)[C@H](Cc1ccccc1)NC(=O)O[C@H]1CO[C@H]2OCC[C@H]21)S(=O)(=O)c1ccc(N)cc1 [DRV, Darunavir]
EC50 (HIV-1LPV5μM): 0.025 ± 0.0066 µM
EC50 (HIV-1APV5μM): 0.29 ± 0.0018 µM
EC50 [2]: 27 nM
EC50 (HIV-2EHO): 0.008 ± 0.007 µM
EC50 (HIV-1396-1μM): 0.016 ± 0.001 µM
EC50 (HIV-1246-1μM): 0.029 ± 0.001 µM
EC50 (HIV-2ROD): 0.01 ± 0.004 µM
